Legend:
[1] = molecular target: Glutamate receptor ionotropic, kainate 2 (Rattus norvegicus, UniProt P42260); assay: biochemical
Description: Displacement of [3H]SYM2081 from cloned rat GluK2(V,C,R)A receptor expressed in sf9 cells incubated for 1 to 2 hrs by liquid scintillation counting method

Glutamate receptor 1 = Glutamate receptor 1 (Rattus norvegicus, UniProt P19490); assay: biochemical
Description: Displacement of [3H]AMPA from rat cloned GluA1o receptor expressed in sf9 cells incubated for 1 to 2 hrs by liquid scintillation counting method

[2] = molecular target: Glutamate receptor ionotropic, kainate 1 (Rattus norvegicus, UniProt P22756); assay: biochemical
Description: Displacement of [3H]SYM2081 from recombinant rat GluK1(Q)1b receptor expressed in sf9 cells incubated for 1 to 2 hrs by liquid scintillation counting method

Glutamate receptor 2 [3] = molecular target: T1, Glutamate receptor 2 (Rattus norvegicus, UniProt P19491); assay: Displacement of [3H]AMPA from full length rat cloned GluA2(R)o receptor expressed in sf9 cells incubated for 1 to 2 hrs by liquid scintillation counting method
Glutamate receptor 3 = Glutamate receptor 3 (Rattus norvegicus, UniProt P19492); assay: biochemical
Description: Displacement of [3H]AMPA from rat cloned GluA3o receptor expressed in sf9 cells incubated for 1 to 2 hrs by liquid scintillation counting method

Glutamate receptor 2 [4] = molecular target: T2, Glutamate receptor 2 (Homo sapiens, UniProt P42262); assay: Displacement of [3H]AMPA from GluA2 LBD (unknown origin) incubated for 2 hrs by liquid scintillation counting method
Glutamate receptor 2 [5] = molecular target: T1, Glutamate receptor 2; assay: Antagonist activity against recombinant rat GluA2(Q)i expressed in xenopus oocytes assessed as inhibition of L-glutamate-induced […] by two electrode voltage clamp method; format: cell-based
[6] = molecular target: Glutamate receptor ionotropic, kainate 3 (Rattus norvegicus, UniProt P42264); assay: biochemical
Description: Displacement of [3H]SYM2081 from cloned rat GluK3A receptor expressed in sf9 cells incubated for 1 to 2 hrs by liquid scintillation counting method

Glutamate receptor 2 [7] = molecular target: T2, Glutamate receptor 2; assay: Agonist activity at human GluA2(Q)i expressed in HEK293 cells assessed as enhancement of glutamate-evoked desensitized current by whole cell patch clamp method; format: cell-based

Chain of Glutamate receptor 3 (P19492 whole entry, the tested form may be a part): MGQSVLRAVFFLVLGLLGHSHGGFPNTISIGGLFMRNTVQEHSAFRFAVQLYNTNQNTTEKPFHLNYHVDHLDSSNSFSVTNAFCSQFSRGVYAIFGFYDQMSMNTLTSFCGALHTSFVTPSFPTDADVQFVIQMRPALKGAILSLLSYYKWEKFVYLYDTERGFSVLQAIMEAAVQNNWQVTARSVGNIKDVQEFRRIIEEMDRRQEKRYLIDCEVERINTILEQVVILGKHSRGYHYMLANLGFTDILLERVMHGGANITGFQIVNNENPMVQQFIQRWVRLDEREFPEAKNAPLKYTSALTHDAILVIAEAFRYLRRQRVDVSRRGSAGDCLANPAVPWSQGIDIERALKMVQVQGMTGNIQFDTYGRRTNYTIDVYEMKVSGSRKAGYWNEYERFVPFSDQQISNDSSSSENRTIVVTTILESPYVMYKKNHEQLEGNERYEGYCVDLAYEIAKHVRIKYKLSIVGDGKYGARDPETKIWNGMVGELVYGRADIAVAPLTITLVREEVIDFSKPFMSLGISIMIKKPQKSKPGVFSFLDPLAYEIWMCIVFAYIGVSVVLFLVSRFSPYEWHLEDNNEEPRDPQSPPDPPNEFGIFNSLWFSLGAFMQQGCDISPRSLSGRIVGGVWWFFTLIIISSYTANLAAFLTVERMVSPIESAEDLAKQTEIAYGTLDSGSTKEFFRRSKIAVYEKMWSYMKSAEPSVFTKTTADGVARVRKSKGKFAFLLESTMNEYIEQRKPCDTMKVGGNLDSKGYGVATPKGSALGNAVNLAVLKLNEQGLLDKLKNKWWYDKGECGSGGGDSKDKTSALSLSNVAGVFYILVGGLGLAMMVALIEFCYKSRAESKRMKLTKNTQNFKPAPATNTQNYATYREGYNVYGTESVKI
Chain of Glutamate receptor ionotropic, kainate 1 (P22756 whole entry): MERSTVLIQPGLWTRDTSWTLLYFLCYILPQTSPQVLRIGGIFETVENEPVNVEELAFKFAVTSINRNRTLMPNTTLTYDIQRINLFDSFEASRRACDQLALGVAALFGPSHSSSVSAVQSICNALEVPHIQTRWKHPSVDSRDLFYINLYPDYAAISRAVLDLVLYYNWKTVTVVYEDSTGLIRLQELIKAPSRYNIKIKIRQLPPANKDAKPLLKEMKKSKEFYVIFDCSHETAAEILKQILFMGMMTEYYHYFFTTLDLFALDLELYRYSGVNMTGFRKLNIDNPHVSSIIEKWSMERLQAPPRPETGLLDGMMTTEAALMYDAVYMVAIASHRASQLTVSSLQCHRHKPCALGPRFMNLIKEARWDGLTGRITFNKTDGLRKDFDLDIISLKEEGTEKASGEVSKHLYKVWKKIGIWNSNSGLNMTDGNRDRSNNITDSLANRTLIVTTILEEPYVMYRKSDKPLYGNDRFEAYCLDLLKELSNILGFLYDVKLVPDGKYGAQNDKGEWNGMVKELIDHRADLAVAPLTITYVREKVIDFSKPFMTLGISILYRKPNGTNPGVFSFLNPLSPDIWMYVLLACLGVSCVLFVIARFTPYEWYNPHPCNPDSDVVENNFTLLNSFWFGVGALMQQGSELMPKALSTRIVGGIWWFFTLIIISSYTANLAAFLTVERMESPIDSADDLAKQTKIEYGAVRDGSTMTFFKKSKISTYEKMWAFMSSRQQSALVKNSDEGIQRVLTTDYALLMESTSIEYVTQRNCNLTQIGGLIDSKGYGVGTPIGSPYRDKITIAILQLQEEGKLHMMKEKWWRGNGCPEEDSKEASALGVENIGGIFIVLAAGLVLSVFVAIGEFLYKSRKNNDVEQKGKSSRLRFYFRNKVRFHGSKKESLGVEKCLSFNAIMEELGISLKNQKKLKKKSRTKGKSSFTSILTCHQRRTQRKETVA
T1 sequence (P19491 whole entry): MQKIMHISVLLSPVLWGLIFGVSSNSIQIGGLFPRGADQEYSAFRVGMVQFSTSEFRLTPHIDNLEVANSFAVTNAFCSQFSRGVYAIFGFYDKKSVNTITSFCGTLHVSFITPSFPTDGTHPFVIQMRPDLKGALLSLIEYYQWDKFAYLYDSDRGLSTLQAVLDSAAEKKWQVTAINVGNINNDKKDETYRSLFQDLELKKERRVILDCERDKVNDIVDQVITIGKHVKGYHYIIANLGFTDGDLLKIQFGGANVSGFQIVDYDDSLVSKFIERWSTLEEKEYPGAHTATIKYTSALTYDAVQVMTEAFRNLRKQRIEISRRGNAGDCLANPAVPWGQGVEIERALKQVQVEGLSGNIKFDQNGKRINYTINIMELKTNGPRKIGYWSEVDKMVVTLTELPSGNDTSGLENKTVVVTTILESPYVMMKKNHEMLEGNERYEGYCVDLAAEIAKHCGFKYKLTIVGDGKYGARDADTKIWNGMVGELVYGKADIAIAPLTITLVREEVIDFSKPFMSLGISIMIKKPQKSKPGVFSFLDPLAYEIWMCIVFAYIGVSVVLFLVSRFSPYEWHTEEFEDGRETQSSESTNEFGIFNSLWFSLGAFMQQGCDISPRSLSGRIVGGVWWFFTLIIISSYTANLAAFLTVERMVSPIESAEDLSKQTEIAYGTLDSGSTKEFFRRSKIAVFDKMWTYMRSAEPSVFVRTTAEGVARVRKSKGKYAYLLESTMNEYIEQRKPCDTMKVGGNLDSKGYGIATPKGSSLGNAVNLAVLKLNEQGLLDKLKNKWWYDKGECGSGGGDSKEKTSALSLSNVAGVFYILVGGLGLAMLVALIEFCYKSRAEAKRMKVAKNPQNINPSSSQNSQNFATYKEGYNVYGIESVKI
Chain of Glutamate receptor ionotropic, kainate 3 (P42264 whole entry): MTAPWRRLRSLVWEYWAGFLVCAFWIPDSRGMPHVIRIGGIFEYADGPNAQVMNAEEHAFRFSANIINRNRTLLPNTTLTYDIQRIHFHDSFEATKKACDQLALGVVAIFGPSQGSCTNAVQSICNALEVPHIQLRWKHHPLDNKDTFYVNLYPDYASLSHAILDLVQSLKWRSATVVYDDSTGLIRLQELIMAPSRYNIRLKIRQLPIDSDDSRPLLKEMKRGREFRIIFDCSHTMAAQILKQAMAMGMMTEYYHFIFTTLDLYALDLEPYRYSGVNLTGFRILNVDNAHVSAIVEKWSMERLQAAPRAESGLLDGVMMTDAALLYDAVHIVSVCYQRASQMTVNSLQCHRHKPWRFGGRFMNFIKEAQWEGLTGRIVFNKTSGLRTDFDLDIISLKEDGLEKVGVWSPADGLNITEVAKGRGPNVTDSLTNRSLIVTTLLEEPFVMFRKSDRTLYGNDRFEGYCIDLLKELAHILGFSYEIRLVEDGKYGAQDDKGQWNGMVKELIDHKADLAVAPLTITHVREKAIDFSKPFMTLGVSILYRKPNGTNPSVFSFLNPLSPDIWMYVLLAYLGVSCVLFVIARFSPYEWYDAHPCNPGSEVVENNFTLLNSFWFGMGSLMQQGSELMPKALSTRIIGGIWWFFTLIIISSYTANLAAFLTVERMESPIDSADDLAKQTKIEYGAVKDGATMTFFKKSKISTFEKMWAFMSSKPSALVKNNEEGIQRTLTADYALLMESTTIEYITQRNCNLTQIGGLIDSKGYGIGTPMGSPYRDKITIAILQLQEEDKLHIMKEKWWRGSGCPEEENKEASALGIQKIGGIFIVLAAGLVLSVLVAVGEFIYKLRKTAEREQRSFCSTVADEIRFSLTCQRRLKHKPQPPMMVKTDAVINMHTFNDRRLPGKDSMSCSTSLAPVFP
Chain of Glutamate receptor ionotropic, kainate 2 (P42260 whole entry): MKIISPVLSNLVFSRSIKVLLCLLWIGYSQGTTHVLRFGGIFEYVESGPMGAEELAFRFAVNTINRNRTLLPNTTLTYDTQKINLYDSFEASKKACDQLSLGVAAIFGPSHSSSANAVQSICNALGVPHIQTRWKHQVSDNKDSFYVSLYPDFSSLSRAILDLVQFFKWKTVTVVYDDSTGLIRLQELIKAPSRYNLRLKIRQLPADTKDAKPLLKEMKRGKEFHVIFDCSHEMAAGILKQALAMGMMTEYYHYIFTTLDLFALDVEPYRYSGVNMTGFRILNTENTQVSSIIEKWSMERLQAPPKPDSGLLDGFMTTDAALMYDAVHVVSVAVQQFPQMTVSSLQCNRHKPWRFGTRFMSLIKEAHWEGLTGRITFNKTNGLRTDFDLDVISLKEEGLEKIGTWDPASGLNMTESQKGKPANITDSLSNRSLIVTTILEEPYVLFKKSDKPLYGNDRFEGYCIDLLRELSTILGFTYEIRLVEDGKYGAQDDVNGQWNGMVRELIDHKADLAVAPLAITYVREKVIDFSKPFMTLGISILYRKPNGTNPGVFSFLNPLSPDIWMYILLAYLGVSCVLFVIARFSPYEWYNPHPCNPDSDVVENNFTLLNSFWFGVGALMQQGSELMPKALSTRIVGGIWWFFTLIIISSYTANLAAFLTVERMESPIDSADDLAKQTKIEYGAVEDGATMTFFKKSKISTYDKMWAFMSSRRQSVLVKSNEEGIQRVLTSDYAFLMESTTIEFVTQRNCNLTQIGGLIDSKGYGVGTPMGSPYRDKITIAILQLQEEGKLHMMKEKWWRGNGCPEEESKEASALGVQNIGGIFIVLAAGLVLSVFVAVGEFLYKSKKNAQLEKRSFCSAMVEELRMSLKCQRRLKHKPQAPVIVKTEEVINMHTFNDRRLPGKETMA
T2 sequence (P42262 whole entry, the tested form may be a part): as the sequence (P19491 whole entry) above, with T191M, A291T, G764R, P852A counted along it
Description for Glutamate NMDA receptor: Displacement of [3H]CGP39653 from NMDA receptor in rat brain homogenate after 60 mins by Packard TopCount microplate scintillation counting method

Ki [2] [µM]	Ki (Glutamate NMDA receptor) [µM]	Structure (SMILES)	other results
> 50	> 50	NC(Cc1cc(Cl)c(Cl)c(-c2ccc(O)c(O)c2)c1)C(=O)O (stereo not given)	–
> 50	> 50	NC(Cc1cc(Cl)c(Cl)c(-c2ccc3c(c2)OCCO3)c1)C(=O)O (racemic)	–
> 50	> 50	NC(Cc1cc(Cl)c(Cl)c(-c2ccc(O)nc2)c1)C(=O)O (racemic)	–
> 50	> 50	NC(Cc1cc(Cl)c(Cl)c(-c2cncc(O)c2)c1)C(=O)O (racemic)	–
> 50	> 50	NC(Cc1cc(Cl)c(Cl)c(-c2cccc(S(N)(=O)=O)c2)c1)C(=O)O (racemic)	–
> 50	> 50	Nc1cccc(-c2cc(CC(N)C(=O)O)cc(Cl)c2Cl)c1 (racemic)	–
> 50	> 50	NC(Cc1cc(Cl)c(Cl)c(-c2cc(O)cc(O)c2)c1)C(=O)O (racemic)	–
> 50	> 50	NC(Cc1cc(Cl)c(Cl)c(-c2cccc(CO)c2)c1)C(=O)O (racemic)	–
> 50	> 50	COc1cccc(-c2cc(CC(N)C(=O)O)cc(Cl)c2Cl)c1 (racemic)	–
> 50	> 50	NC(Cc1cc(Cl)c(Cl)c(-c2ccc(CO)cc2)c1)C(=O)O (racemic)	–
> 50	> 50	NC(Cc1cc(Cl)c(Cl)c(-c2ccc(S(N)(=O)=O)cc2)c1)C(=O)O (racemic)	–
92.3	–	NC(Cc1cc(Cl)c(Cl)c(-c2cccc(O)c2)c1)C(=O)O (racemic)	Ki [1]: 78.1 µM; Ki (Glutamate receptor 1): 17.1 µM; Ki (Glutamate receptor 2 [3]): 5.03 µM; Ki (Glutamate receptor 3): 55.1 µM; Ki [6]: 52.3 µM
–	–	NS(=O)(=O)c1cc2c(cc1Cl)NC(C1CC3C=CC1C3)NS2(=O)=O (stereo not given) [CYCLOTHIAZIDE]	EC50 (Glutamate receptor 2 [7]): 7.6 µM

Structure (SMILES)	Ki [2] [µM]	Ki (Glutamate NMDA receptor) [µM]	other results
N[C@@H](Cc1cc(Cl)c(Cl)c(-c2cncc(O)c2)c1)C(=O)O	> 100	> 50	Ki [1]: > 100 µM; Ki (Glutamate receptor 1): 6.65 µM; Ki (Glutamate receptor 2 [3]): 1.74 µM; Ki (Glutamate receptor 3): 6.88 µM; Ki (Glutamate receptor 2 [4]): 2.26 µM; IC50 (Glutamate receptor 2 [5]): 3.7 µM; Ki [6]: > 100 µM
N[C@H](Cc1cc(Cl)c(Cl)c(-c2cncc(O)c2)c1)C(=O)O	> 100	> 50	Ki [1]: > 100 µM; Ki (Glutamate receptor 1): > 100 µM; Ki (Glutamate receptor 2 [3]): > 100 µM; Ki (Glutamate receptor 3): > 100 µM; Ki [6]: > 100 µM

— ChEMBL document CHEMBL3758128, “Studies on Aryl-Substituted Phenylalanines: Synthesis, Activity, and Different Binding Modes at AMPA Receptors” (J Med Chem, 2016)
